Patent publication US20120058920A1, “Method for Identifying Inhibitors Against Dengue Virus” (priority 2009, published 2012)
Where two headings read alike, the source gives them in different places.

System: dengue serotype 2
Experiment: Antiviral assay (dengue serotype 2), CPE inhibition in Vero cells with ATPLite luminescence readout
Type: cell-based, dengue virus
Experimental: 3. Antiviral assays (dengue serotype 2)
15 μl of Vero cells (1500 cells/well) were added to a 384-well white plate containing 10 μl of four-fold serially diluted testing compound in cell culture medium with 2% FCS. 15 μl of virus stock was then added to each well at a MOI of 0.1. Cell controls received only cells and medium, while virus controls received virus but no test compound. Plates were incubated at 37° C. until the viral CPE in the virus control wells reached ˜100% (5-6 days). ATPLite (Perkin Elmer) was added to all wells according to the supplier's instructions. Briefly, 40 μl of the reconstituted lyophilized substrate solution was added to each well. The plate was shaken at 700 rpm for 2 minutes and the luminescence was measured using a Viewlux apparatus (Perkin Elmer) by taking a 0.1-0.5-second integrated reading of each test plate. The results were expressed as EC50 values defined as the concentration of compound achieving 50% inhibition of the virus-reduced luminescence signals as compared with the uninfected cell control. The signal-to-noise ratio of an assay is the ratio between the mean luminescent signals of the cell controls and the virus controls. The dynamic range is defined as the ratio between the signals at the last (maximal signal) and first point in the linear range of the dose-response curve.
Intra-assay reproducibility was measured by performing each experiment in three identical plates with each concentration of drug in triplicate. Inter-assay reproducibility was measured by performing three independent experiments at different times under the same experimental conditions.

[1] = Dengue virus, Vero, accuracy of the assay, value ± spread over many measurements (# data 42-54), read-out: EC50
[2] = Dengue virus, Vero cells 1500 cells/well, MOI 0.1, 5-6 days, ATPLite, Exp. # 1, read-out: EC50 (μM) Exp. # 1
[3] = Dengue virus, Vero cells 1500 cells/well, MOI 0.1, 5-6 days, ATPLite, Exp. # 2, read-out: EC50 (μM) Exp. # 2
[4] = Dengue virus, Vero cells 1500 cells/well, MOI 0.1, 5-6 days, ATPLite, Exp. # 3, read-out: EC50 (μM) Exp. # 3
[5] = Dengue virus, Vero cells 1500 cells/well, MOI 0.1, 5-6 days, ATPLite, Exp. # 4, read-out: EC50 (μM) Exp. # 4
[6] = Dengue virus, Vero cells 1500 cells/well, MOI 0.1, 5-6 days, ATPLite, Exp. # 5, read-out: EC50 (μM) Exp. # 5
[7] = Dengue virus, Vero cells 1500 cells/well, MOI 0.1, 5-6 days, ATPLite, Exp. # 6, read-out: EC50 (μM) Exp. # 6
[8] = Dengue virus, Vero cells 1500 cells/well, MOI 0.1, 5-6 days, ATPLite, Exp. # 7, read-out: EC50 (μM) Exp. # 7

Compound	EC50 [1]	EC50 [2]	EC50 [3]	EC50 [4]	EC50 [5]	EC50 [6]	EC50 [7]	EC50 [8]	EC50 (accuracy of the assay, value ± spread over 30 measurements)
C[C@@]1(O)[C@H](O)[C@@H](CO)O[C@H]1n1ccc(N)nc1=O [2′-C-methylcytidine]	12.6 ± 3.32 µM	13.5 µM	14.6 µM	10.3 µM	10.4 µM	6.73 µM	14 µM	17.4 µM	–
O=c1cnn([C@@H]2O[C@H](CO)[C@@H](O)[C@H]2O)c(=O)[nH]1 [6-Azauridine]	4.53 ± 0.83 µM	5.52 µM	4.85 µM	3.74 µM	4.26 µM	4.6 µM	3.81 µM	5.14 µM	–
Interferon-α	–	–	–	–	–	–	–	–	861.2 IU/ml ± 427.11
NC(=O)c1ncn([C@@H]2O[C@H](CO)[C@@H](O)[C@H]2O)n1 [Ribavirin]	53 ± 10.2 µM	52 µM	53.8 µM	43.8 µM	42.4 µM	47.7 µM	69 µM	67.5 µM	–
